In patent publication US20060234986A1, “Use of TAFI inhibitors for enhanced myocardial reperfusion and facilitated PCI” (Schering Aktiengesellschaft, priority 2005, published 2006):

How the values were obtained:
[1] = tested on: rat femoral artery occlusive thrombus; assay: Rat femoral artery thrombosis model (rose Bengal + light irradiation), incidence of reperfusion; assay type: in vivo
From the text: A stable, occlusive thrombus was formed by giving rose Bengal intravenously followed by light irradiation. Free radicals generated at the site of irradiation result in endothelial damage that causes an occlusive thrombus. Thrombotic occlusion and effective fibrinolysis (reperfusion) were monitored by measuring blood flow with a Doppler flow probe. Since no spontaneous reperfusion is observed in this model, a threshold dose of tPA was used to mimic the endogenous fibrinolytic activity observed in patients with STEMI undergoing PCI (16-25% spontaneous reperfusion rate). […] Based on the results of phanmacokinetic studies and in vitro clot lysis assays, two doses (3 and 10 mg/kg) of a TAFI inhibitor of the invention, (2S)-2-(3-(amino)methylphenyl)-3-(((1R)-1-(3-phenylpropylsulfonyl)amino-2-methylpropyl)(hydroxy)phosphinoyl)propanoic acid trifluoroacetate, were used.
Male Wistar rats (241-270 g) were anesthetized with sodium pentobarbital. A section of the right femoral artery was isolated carefully, and a pulse Doppler flow probe was placed for monitoring blood flow. The left carotid artery, both jugular veins, and left femoral vein were cannulated with polyethylene tubes for monitoring blood pressure and heart rate, for injection of tPA, rose Bengal and TAFI inhibitor, respectively. Blood flow, blood pressure and heart rate were continuously recorded on a thermal recorder during the experiment. An occlusive thrombus was induced in the right femoral artery by bolus injection of rose Bengal followed by light exposure. Occlusive thrombus was observed approximately 6 min after the injection of rose Bengal and start of irradiation.
Rats were assigned to four groups for the tPA dose response as follows: • (1) Vehicle (saline; n=8) • (2) tPA (72 μg/kg/min=2.5 million I.U./kg/hr; n=8) • (3) tPA (115 μg/kg/min=4 million I.U./kg/hr; n=10) • (4) tPA (230 μg/kg/min=8 million I.U./kg/hr; n=8)
tPA or vehicle was infused via the right jugular vein beginning 10 min after the formation of occlusive thrombus and the infusion was continued for 60 min.
Rats were assigned to three groups for the TAFI inhibitor efficacy study as follows: • (1) tPA threshold (72 μg/kg/min, n=16) • (2) low TAFI inhibitor (3 mg/kg+0.03 mg/kg/min) and tPA threshold (72 μg/kg/min) (n=8) • (3) high TAFI inhibitor (10 mg/kg+0.10 mg/kg/min) and tPA threshold (72 μg/kg/min) (n=8)
Administration of TAFI inhibitor or vehicle via the left femoral vein was started simultaneously with tPA via the right jugular vein beginning 10 min after the formation of occlusive thrombus, both given as a bolus over 1 min and infusion for 59 min. […] The incidence of reperfusion was used as the index of drug efficacy.

α2-antiplasmin = assay: Ex vivo α2-antiplasmin activity (colorimetric assay) in dog plasma
Method: Plasma drug concentration was measured using LC/MS/MS techniques. Ex vivo α2-antiplasmin, an indicator of systemic plasmin activation, was measured by colorimetric assay. Exogenously activated TAFI (10 nM) was added into the blank plasma and TAFI activity measured by colorimetric assays was defined as 100%. Plasma from TAFI inhibitor-administered dogs were treated in the same way, and results were expressed as the percent inhibition of the spiked TAFI activity.

[2] = tested on: rabbit jugular vein thrombus; assay: Rabbit jugular vein thrombosis model, thrombus weight; assay type: in vivo; conditions: for Thrombus weight (wet): 90 min
Method: Thrombosis was initiated ex vivo and introduced into the jugular vein. Treatment compound(s) were administered to the animals after thrombus formation and introduction. Fibrinolysis was assessed by measuring clot weight at the end of the study. […] The threshold dose of tPA was combined with either a TAFI inhibitor of the invention, (2S)-2-(3-(amino)methylphenyl)-3-(((1R)-1-(3-phenylpropylsulfonyl)amino-2-methylpropyl)(hydroxy)phosphinoyl)propanoic acid trifluoroacetate, or the peptidic TAFI inhibitor CPI, which was used as a positive control to confirm the effect of TAFI inhibition in this model.
Male New Zealand white rabbits (2.35-3.14 kg) were anesthetized using isoflurane. A segment of the jugular vein was isolated with ligatures and injected with a mixture of autologous citrated blood and thromboplastin to induce thrombus formation. The thrombus formed in the isolated venous segment was allowed to mature for 30 minutes prior to releasing the ligatures and initiating thrombolytic treatment.
Rabbits were divided into the following treatment groups (10-12 animals per group): • (1) vehicle; phosphate buffered saline (PBS) • (2) threshold fibrinoloytic dose tPA (10 μg/kg+67 μg/kg/hr) • (3) CPI (500 μg/kg+300 μg/kg/hr)+tPA low (10 μg/kg+67μg/kg/hr) • (4) low TAFI inhibitor (0.3 mg/kg+0.14 mg/kg/hr)+tPA low (10 μg/kg+67 μg/kg/hr) • (5) high TAFI inhibitor (3 mg/kg+1.4 mg/kg/hr)+tPA low ([…]+67 μg/kg/hr) • (6) maximally effective dose tPA (30 μg/kg+200 μg/kg/hr)
Blood samples were collected from the left jugular vein for measurement of TAFI inhibitor plasma drug levels prior to releasing the ligatures (time=0), and at 1, 10, 30, 60, and 90 minutes after starting thrombolytic treatment. CPI, TAFI inhibitor, tPA or vehicle were administered as bolus injections, followed by a constant infusion for 90 minutes via the right marginal ear vein. At the end of 90 minutes, the rabbits were euthanized and the thrombus was removed for determination of wet and dry weights. The relative effects of all treatment groups were the same, regardless of whether wet or dry weights were utilized for analysis, so only wet weights are used in the subsequent discussion. The assessment of bleeding risk was evaluated by measuring the weight of blood loss from toe nail clips performed prior to thrombolytic treatment, and at the end of the study. Re-bleeding from the previous site following initial hemostasis was also recorded.
Data were analyzed using ANOVA followed by the LSD test for a comparison of differences in thrombus weight in the various treatment groups. In the vehicle-treated animals (group 1) thrombus weights averaged 98±9 mg. […] When either CPI (group 3) or TAFI inhibitor (group 4 or 5) was given together with the low dose of tPA, the threshold effect of tPA was enhanced, and a significant reduction in thrombus weights was observed when compared to the vehicle-treated group. This enhancement of fibrinolytic activity of tPA for the CPI group (68±10 mg) and the low dose TAFI inhibitor group (63±10 mg) was similar to results obtained with the high dose TAFI inhibitor group (56±13 mg). In animals treated with the higher dose of tPA (group 6), a significant reduction in thrombus weight (41±7 mg) was observed compared to both the vehicle and low dose tPA groups.

Compound	Incidence of reperfusion ([1]; TAFI inhibitor efficacy study, tPA threshold dose 72 μg/kg/min alone, reperfused/total rats)	Incidence of reperfusion ([1]; tPA dose response study, tPA 72 μg/kg/min infused 60 min, starting 10 min after occlusive thrombus, reperfused/total rats)	Incidence of reperfusion ([1]; tPA dose response study, tPA 115 μg/kg/min infused 60 min, reperfused/total rats)	Incidence of reperfusion ([1]; tPA dose response study, tPA 230 μg/kg/min infused 60 min, reperfused/total rats)	Activity of α2-antiplasmin (indicator of systemic plasmin activation) (α2-antiplasmin; tPA infusion, dose dependence)	Thrombus weight (wet) ([2]; higher (maximally effective) dose tPA 30 μg/kg + 200 μg/kg/hr alone) [mg]	Thrombus weight (wet) ([2]; low (threshold) dose tPA 10 μg/kg + 67 μg/kg/hr alone, not significant vs vehicle) [mg]	% Reduction Thrombus Weight ([2]; threshold dose tPA (10 μg/kg + 1 μg/kg/min) alone) [%]	Incidence of reperfusion ([1]; 3 mg/kg TAFI inhibitor + tPA (72 μg/kg/min) post-thrombus formation, p = ns)	Incidence of reperfusion ([1]; 10 mg/kg TAFI inhibitor + tPA (72 μg/kg/min) post-thrombus formation, p < 0.03)	Incidence of reperfusion ([1]; high TAFI inhibitor dose 10 mg/kg + 0.10 mg/kg/min i.v. + tPA threshold 72 μg/kg/min, post-thrombus, reperfused/total rats)	Incidence of reperfusion ([1]; low TAFI inhibitor dose 3 mg/kg + 0.03 mg/kg/min i.v. + tPA threshold 72 μg/kg/min, post-thrombus, reperfused/total rats)	Inhibition of α2-antiplasmin activity induced by tPA infusion (α2-antiplasmin; TAFI inhibitor administered pre- or post-thrombus formation + tPA)	% Reduction Thrombus Weight ([2]; 0.3 mg/kg TAFI inhibitor + tPA post-thrombus formation, p = ns) [% p = ns]	% Reduction Thrombus Weight ([2]; 3 mg/kg TAFI inhibitor + tPA post-thrombus formation, p = ns) [% p = ns]	Thrombus weight (wet) ([2]; high TAFI inhibitor 3 mg/kg + 1.4 mg/kg/hr + tPA low (10 pg/kg + 67 μg/kg/hr)) [mg]	Thrombus weight (wet) ([2]; low TAFI inhibitor 0.3 mg/kg + 0.14 mg/kg/hr + tPA low (10 μg/kg + 67 μg/kg/hr)) [mg]
tPA: tissue-type plasminogen activator, a plasminogen activator used as thrombolytic agent	2/16	1/8	5/10	6/8	dose-dependently reduced	41 ± 7	80 ± 11	18									
CC(C)[C@H](NS(=O)(=O)CCCc1ccccc1)P(=O)(O)C[C@H](C(=O)O)c1cccc(CN)c1.O=C(O)C(F)(F)F [TAFI inhibitor, (2S)-2-(3-(amino)methylphenyl)-3-(((1R)-1-(3-phenylpropylsulfonyl)amino-2-methylpropyl)(hydroxy)phosphinoyl)propanoic acid trifluoroacetate]									25% (2/8) p = ns	63% (5/8) p < 0.03	5/8	2/8	did not change	36	43	56 ± 13	63 ± 10
